Results on 37 molecules are retold here after the RepoRT retention time repository (doi:10.1021/acs.analchem.2c02893).

What all share (settings): stereoisomer not certain
Series [1] is described as follows: RP, Thermo Scientific Acclaim RSLC 120 C18, 100 × 2.1 mm, 2.2 µm, 30 °C, 0.2 mL/min, estimated dead time 1.1 min; A: 90% water + 10% methanol + 0.01% formic acid + 5 mM ammonium formate, pH 3.61; B: methanol + 0.01% formic acid + 5 mM ammonium formate, pH 3.61; gradient (min/%B) 0/1 1/1 2/39 13/99.9 15/99.9 15.1/1 20.1/1.
Series [2] can be described thus: RP, Waters ACQUITY UPLC BEH C18, 100 × 2.1 mm, 1.7 µm, 30 °C, 0.35 mL/min, estimated dead time 0.63 min; A: water + 0.01% formic acid + 5 mM ammonium formate, pH 3.71; B: acetonitrile + 0.01% formic acid, pH 3.71; gradient (min/%B) 0/10 3/10 22/100 30/100 30.1/10 40/10.
The nature of series [3]: RP, Waters ACQUITY UPLC BEH C18, 100 × 2.1 mm, 1.7 µm, 35 °C, 0.35 mL/min, estimated dead time 0.63 min; A: water + 0.01% formic acid + 5 mM ammonium formate, pH 3.71; B: acetonitrile + 0.01% formic acid, pH 3.71; gradient (min/%B) 0/5 0.5/5 16/95 16.1/99 19/99 19.1/5 21/5.
Series [4] can be described thus: RP, Thermo Scientific Acclaim RSLC 120 C18, 100 × 2.1 mm, 2.2 µm, 30 °C, 0.2 mL/min, estimated dead time 1.1 min; A: water + 0.1% formic acid, pH 2.6; B: methanol + 0.1% formic acid, pH 2.6; gradient (min/%B) 0/10 4/50 17/95 25/95 25.1/10 30/10.

As for `COc1ccc(Cc2cnc(N)nc2N)cc1OC` [Diaveridine], the LC retention time in series [1] is 3.88 min; in series [2], 3.36 min; in series [3], 3.48 min; in series [4], 3.67 min.
`COP(=O)(OC)OC=C(Cl)Cl` [Dichlorvos]: the LC retention time was 7 min in series [1], 9.14 min in series [2], 6.79 min in series [3] and 8.02 min in series [4].
On the same counts, the results for `CCSCc1ccccc1OC(=O)NC` [Ethiofencarb] are 7.7 min, 10.7 min, 8.02 min and 9.05 min.
Taken in the same sequence, the figures for `COC(=O)Nc1nc2ccc(Sc3ccccc3)cc2[nH]1` [Fenbendazole] were 10.3 min, 12.2 min, 9.17 min and 10.9 min.
For `CC1CCc2cc(F)cc3c(=O)c(C(=O)O)cn1c23` (stereo not drawn) [Flumequine], the LC retention time was 7.46 min in series [1], 9.84 min in series [2], 7.28 min in series [3] and 8.57 min in series [4].
Taken in the same sequence, the figures for `CC(C)Cc1ccc(C(C)C(=O)O)cc1` (stereo not drawn) [Ibuprofen] were 10.7 min, 14 min, 10.7 min and 13.1 min.
In the case of `COCC(NC(C)=O)C(=O)NCc1ccccc1` (stereo not drawn) [Lacosamide], the LC retention time in series [1] was 5.09 min; in series [2], 5.76 min; in series [3], 4.46 min; in series [4], 5.79 min.
Taken in the same sequence, the figures for `Nc1nnc(-c2cccc(Cl)c2Cl)c(N)n1` [Lamotrigine] were 5.31 min, 6.41 min, 4.66 min and 5.17 min.
With `CCC(C(N)=O)N1CCCC1=O` (stereo not drawn) [Levetiracetam], the LC retention time was 3.74 min in series [1], 1.68 min in series [2], 2.43 min in series [3] and 3.89 min in series [4].
`CCNCC(=O)Nc1c(C)cccc1C` [Lidocaine-Nor]: the LC retention time is 4.33 min in series [1], 3.59 min in series [2], 3.56 min in series [3] and 3.97 min in series [4].
On the same counts, the results for `CCN(CC)CC(=O)Nc1c(C)cccc1C` [Lidocaine] are 4.54 min, 5.29 min, 4.18 min and 4.46 min.
On the same counts, the results for `Cc1cccc(C)c1OCC(=O)NC(Cc1ccccc1)C(O)CC(Cc1ccccc1)NC(=O)C(C(C)C)N1CCCNC1=O` (stereo not drawn) [Lopinavir] are 11.8 min, 14.4 min, 11 min and 15.4 min.
Taken in the same sequence, the figures for `NC1Cc2cc3c(cc2C1)OCO3` [MDAI] were 3.81 min, 2.34 min, 2.95 min and 3.47 min.
As to `CC(N)Cc1ccc2c(c1)OCO2` (stereo not drawn) [MDA], the LC retention time in series [1] is 4.19 min; in series [2], 3.36 min; in series [3], 3.46 min; in series [4], 3.96 min.
On the same counts, the results for `CC12CC3CC(C)(C1)CC(N)(C3)C2` [Memantine] are 6.91 min, 8.04 min, 5.86 min and 6.63 min.
Taken in the same sequence, the figures for `COP(N)(=O)SC` (stereo not drawn) [Methamidophos] were 2.76 min, 1.18 min, 1.34 min and 2.61 min.
In the case of `COCCc1ccc(OCC(O)CNC(C)C)cc1` (stereo not drawn) [Metoprolol], the LC retention time in series [1] is 4.93 min; in series [2], 6.53 min; in series [3], 4.79 min; in series [4], 4.94 min.
Consider `CN1CCC23c4c5ccc(O)c4OC2C(O)C=CC3C1C5` (stereo not drawn) [Morphine (MOR)], for which the LC retention time in series [1] was 2.54 min; in series [2], 1.21 min; in series [3], 1.47 min; in series [4], 2.11 min.
On the same counts, the results for `NC(=O)c1cccnc1` [Nicotinamide] are 2.73 min, 1.06 min, 1.2 min and 1.69 min.
Taken in the same sequence, the figures for `CN1CCCC1c1cccnc1` (stereo not drawn) [Nicotine] were 2.41 min, 1.03 min, 1.17 min and 1.34 min.
Taken in the same sequence, the figures for `CCCCC(CC)COC(=O)C(C#N)=C(c1ccccc1)c1ccccc1` (stereo not drawn) [Octocrylene] were 13.4 min, 19.8 min, 15.3 min and 18 min.
Regarding `CC(=O)Nc1ccc(O)cc1` [Paracetamol], the LC retention time is 3.48 min in series [1], 1.59 min in series [2], 2 min in series [3] and 3.52 min in series [4].
As for `CCOc1ccc(NC(C)=O)cc1` [Phenacetin], the LC retention time in series [1] is 5.93 min; in series [2], 7.53 min; in series [3], 5.58 min; in series [4], 6.82 min.
Taken in the same sequence, the figures for `NC(=O)c1ccccc1Oc1ccccc1` [Phenoxybenzamide] were 7.79 min, 11.5 min, 8.66 min and 9.15 min.
Taken in the same sequence, the figures for `O=P(Oc1ccccc1)(Oc1ccccc1)Oc1ccccc1` [Phosphate-Triphenyl] were 11 min, 15.5 min, 11.8 min and 14.3 min.
On the same counts, the results for `CCOP(=O)(OCC)OCC` [Phosphate-triethyl] are 6.16 min, 7.31 min, 5.48 min and 6.94 min.
With `CCOC(=O)c1ccccc1C(=O)OCC` [Phthalate-Diethyl], the LC retention time in series [1] was 8.5 min; in series [2] it was 12.2 min; in series [3], 9.21 min; in series [4] it was 10.2 min.
For `COC(=O)c1ccccc1C(=O)OC` [Phthalate-Dimethyl], the LC retention time in series [1] is 6.63 min; in series [2], 9.38 min; in series [3], 7.03 min; in series [4], 7.52 min.
Taken in the same sequence, the figures for `CCC(C)OC(=O)N1CCCCC1CCO` (stereo not drawn) [Picaridin (Icaridin)] were 8.83 min, 10.8 min, 8.16 min and 10.7 min.
Taken in the same sequence, the figures for `CC(C)NCC(O)COc1cccc2[nH]ccc12` (stereo not drawn) [Pindolol] were 3.89 min, 4.14 min, 3.7 min and 3.69 min.
Taken in the same sequence, the figures for `CC(C)NCC(O)COc1cccc2ccccc12` (stereo not drawn) [Propranolol] were 6.59 min, 8.91 min, 6.49 min and 6.27 min.
Consider `COC1C=COC2(C)Oc3c(C)c(O)c4c(O)c(c5c(nc6cc(C)ccn65)c4c3C2=O)NC(=O)C(C)=CC=CC(C)C(O)C(C)C(O)C(C)C(OC(C)=O)C1C` (stereo not drawn) [Rifaximin], for which the LC retention time is 10.1 min in series [1], 13 min in series [2], 9.87 min in series [3] and 12.5 min in series [4].
In the case of `CC(N)C12CC3CC(CC(C3)C1)C2` (stereo not drawn) [Rimantadin], the LC retention time in series [1] was 6.71 min; in series [2] it was 7.89 min; in series [3], 5.86 min; in series [4] it was 6.34 min.
Consider `CCN(C)C(=O)Oc1cccc(C(C)N(C)C)c1` (stereo not drawn) [Rivastigmine], for which the LC retention time in series [1] was 4.74 min; in series [2] it was 6.53 min; in series [3] it was 4.78 min; in series [4], 4.86 min.
Consider `CC(=O)Nc1ccc(S(=O)(=O)Nc2nc(C)cc(C)n2)cc1` [Sulfamethazine-N4-Acetyl], for which the LC retention time in series [1] was 4.59 min; in series [2] it was 5.03 min; in series [3], 4.03 min; in series [4], 5.06 min.
Taken in the same sequence, the figures for `N#CSCSc1nc2ccccc2s1` [TCMTB] were 9.25 min, 13.4 min, 10.1 min and 11.4 min.
With `CCCCCc1cc(O)c2c(c1)OC(C)(C)C1CCC(C)=CC21` (stereo not drawn) [THC], the LC retention time in series [1] is 14 min; in series [2] it was 19.6 min; in series [3], 15.1 min; in series [4], 18.7 min.
